Inhibition data for two molecules are collected here from PMC3639963, “A New Class of Small Molecule Inhibitor of BMP Signaling” (PLoS ONE, 2013).

Assay in all cases: Nanosyn kinase profiling
What all share (type): biochemical
Holding throughout (details): read-out: Percentage inhibition; for inhibition at 0.1 µM: 0.1 µM inhibitor; for inhibition at 1 µM: 1 µM inhibitor

One test has as its target T1, AURKB (Homo sapiens, UniProt Q96GD4).
T1 construct: purchased Nanosyn (enzymatic panel); SGC in-house recombinant human kinases (DSF panel); Invitrogen (ALK1-6)
The procedure, abridged: (§1)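 Percent inhibition of each kinase was measured with the inhibitor at 0.1 µM and at 1 µM, as part of a 200-kinase human selectivity panel.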

For another test, the target named is T2, BLK (Homo sapiens, UniProt P51451).
T2 construct: purchased Nanosyn (enzymatic panel); SGC in-house recombinant human kinases (DSF panel); Invitrogen (ALK1-6)
The procedure, abridged: as §1

A further test addresses T3, BRK (Homo sapiens, UniProt Q13882).
T3 construct: purchased Nanosyn (enzymatic panel); SGC in-house recombinant human kinases (DSF panel); Invitrogen (ALK1-6)
The procedure, abridged: as §1

The target in the next test is T4, CLK2 (Homo sapiens, UniProt P49760).
T4 construct: purchased Nanosyn (enzymatic panel); SGC in-house recombinant human kinases (DSF panel); Invitrogen (ALK1-6)
T4 sequence (P49760 whole entry): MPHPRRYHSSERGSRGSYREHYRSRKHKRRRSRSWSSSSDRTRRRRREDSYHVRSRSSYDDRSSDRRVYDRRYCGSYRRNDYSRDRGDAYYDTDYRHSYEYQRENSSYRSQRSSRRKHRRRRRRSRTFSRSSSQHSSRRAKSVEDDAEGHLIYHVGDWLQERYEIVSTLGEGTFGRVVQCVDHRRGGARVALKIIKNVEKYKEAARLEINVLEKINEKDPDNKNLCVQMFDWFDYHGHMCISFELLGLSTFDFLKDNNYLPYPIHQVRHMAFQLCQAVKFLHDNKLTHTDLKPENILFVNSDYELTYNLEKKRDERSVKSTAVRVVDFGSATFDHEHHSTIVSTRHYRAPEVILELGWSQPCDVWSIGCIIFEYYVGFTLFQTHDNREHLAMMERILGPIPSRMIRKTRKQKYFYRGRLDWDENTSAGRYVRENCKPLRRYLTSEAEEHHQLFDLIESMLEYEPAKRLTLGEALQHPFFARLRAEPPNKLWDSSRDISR
The procedure, abridged: as §1

A further test has as its target T5, DCAMKL2 (Homo sapiens, UniProt Q8N568).
T5 construct: purchased Nanosyn (enzymatic panel); SGC in-house recombinant human kinases (DSF panel); Invitrogen (ALK1-6)
T5 sequence (Q8N568 1-766): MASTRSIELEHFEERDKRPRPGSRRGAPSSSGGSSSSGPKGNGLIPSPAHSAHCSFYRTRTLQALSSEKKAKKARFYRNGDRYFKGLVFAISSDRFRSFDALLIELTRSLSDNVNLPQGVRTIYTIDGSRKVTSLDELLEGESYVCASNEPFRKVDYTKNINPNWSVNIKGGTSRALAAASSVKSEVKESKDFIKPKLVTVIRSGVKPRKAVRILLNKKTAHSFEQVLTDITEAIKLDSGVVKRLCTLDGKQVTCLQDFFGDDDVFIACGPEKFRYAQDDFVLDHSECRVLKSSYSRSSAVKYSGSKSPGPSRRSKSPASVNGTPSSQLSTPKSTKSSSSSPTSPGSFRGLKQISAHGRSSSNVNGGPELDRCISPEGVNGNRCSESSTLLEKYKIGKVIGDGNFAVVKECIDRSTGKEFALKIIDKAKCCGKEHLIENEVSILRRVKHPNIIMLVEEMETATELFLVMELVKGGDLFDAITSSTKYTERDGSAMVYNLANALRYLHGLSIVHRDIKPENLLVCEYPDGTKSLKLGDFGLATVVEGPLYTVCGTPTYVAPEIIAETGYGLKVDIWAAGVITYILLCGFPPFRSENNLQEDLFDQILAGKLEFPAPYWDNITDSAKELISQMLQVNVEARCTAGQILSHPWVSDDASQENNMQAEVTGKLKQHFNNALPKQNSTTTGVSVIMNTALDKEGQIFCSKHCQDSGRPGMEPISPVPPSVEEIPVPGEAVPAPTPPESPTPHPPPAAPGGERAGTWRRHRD
The procedure, abridged: as §1

In a further test the target is T6, ERBB4 (Homo sapiens, UniProt Q15303).
T6 construct: purchased Nanosyn (enzymatic panel); SGC in-house recombinant human kinases (DSF panel); Invitrogen (ALK1-6)
T6 sequence (Q15303 26-1308): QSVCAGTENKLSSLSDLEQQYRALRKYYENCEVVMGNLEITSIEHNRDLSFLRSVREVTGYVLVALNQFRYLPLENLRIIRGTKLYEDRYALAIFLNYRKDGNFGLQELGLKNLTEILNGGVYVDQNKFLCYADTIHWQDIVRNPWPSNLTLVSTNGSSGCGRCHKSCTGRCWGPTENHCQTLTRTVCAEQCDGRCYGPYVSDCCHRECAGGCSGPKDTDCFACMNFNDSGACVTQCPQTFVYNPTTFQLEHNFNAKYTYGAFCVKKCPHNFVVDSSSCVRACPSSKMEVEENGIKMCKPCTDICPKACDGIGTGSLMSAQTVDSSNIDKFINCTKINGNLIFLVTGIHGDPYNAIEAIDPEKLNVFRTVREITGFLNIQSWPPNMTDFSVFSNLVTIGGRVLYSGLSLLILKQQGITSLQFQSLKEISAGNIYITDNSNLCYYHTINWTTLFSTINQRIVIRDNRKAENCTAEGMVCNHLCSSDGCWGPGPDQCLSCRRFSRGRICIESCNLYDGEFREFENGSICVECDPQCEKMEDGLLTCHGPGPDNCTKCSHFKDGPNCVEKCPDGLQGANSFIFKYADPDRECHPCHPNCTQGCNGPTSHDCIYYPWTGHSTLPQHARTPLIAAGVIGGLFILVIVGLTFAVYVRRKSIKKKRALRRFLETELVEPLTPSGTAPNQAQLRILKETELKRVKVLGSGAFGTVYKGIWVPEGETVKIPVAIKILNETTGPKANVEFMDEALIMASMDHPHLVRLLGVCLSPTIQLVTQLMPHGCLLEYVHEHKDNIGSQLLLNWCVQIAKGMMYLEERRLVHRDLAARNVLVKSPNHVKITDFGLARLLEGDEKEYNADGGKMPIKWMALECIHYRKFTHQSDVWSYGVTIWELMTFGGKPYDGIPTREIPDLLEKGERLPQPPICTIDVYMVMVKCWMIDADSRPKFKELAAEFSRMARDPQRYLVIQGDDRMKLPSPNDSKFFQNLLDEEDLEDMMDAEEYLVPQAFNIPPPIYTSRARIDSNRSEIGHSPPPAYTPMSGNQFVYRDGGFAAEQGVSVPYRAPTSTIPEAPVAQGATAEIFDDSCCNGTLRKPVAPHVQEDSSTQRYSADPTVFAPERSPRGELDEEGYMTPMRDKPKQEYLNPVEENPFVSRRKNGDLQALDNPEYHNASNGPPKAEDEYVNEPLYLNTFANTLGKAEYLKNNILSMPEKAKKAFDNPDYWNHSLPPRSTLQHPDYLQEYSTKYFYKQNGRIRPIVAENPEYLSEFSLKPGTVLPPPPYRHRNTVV
Put shortly: as §1

Another test has as its target T7, FGFR3 (Homo sapiens, UniProt P22607).
T7 construct: purchased Nanosyn (enzymatic panel); SGC in-house recombinant human kinases (DSF panel); Invitrogen (ALK1-6)
Put shortly: as §1

In a further test the target is T8, PKA (Homo sapiens, UniProt P17612).
T8 construct: purchased Nanosyn (enzymatic panel); SGC in-house recombinant human kinases (DSF panel); Invitrogen (ALK1-6)
Put shortly:
as §1

A further test concerns the target T9, RET (Homo sapiens, UniProt P07949).
T9 construct: purchased Nanosyn (enzymatic panel); SGC in-house recombinant human kinases (DSF panel); Invitrogen (ALK1-6)
The procedure, abridged: as §1

Another test has as its target T10, TBK1 (Homo sapiens, UniProt Q9UHD2).
T10 construct: purchased Nanosyn (enzymatic panel); SGC in-house recombinant human kinases (DSF panel); Invitrogen (ALK1-6)
T10 sequence (Q9UHD2 1-729): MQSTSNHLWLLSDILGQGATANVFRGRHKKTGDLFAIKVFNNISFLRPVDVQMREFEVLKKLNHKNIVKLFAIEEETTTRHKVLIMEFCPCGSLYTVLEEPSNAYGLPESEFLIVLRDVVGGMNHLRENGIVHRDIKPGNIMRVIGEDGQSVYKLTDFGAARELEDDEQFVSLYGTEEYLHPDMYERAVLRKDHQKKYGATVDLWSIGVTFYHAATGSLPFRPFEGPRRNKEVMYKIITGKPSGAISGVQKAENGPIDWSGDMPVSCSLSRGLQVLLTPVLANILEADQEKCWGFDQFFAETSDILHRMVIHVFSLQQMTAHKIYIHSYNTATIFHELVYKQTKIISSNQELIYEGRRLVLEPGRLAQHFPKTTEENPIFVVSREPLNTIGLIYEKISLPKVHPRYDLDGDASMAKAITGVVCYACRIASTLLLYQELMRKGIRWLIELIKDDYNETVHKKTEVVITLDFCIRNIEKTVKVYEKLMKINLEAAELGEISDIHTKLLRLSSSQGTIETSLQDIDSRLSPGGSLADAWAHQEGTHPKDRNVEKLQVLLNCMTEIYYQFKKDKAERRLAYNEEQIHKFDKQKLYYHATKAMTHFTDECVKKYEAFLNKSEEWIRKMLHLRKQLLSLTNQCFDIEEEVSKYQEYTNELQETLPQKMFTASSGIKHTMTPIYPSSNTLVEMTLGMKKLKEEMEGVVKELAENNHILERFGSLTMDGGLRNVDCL
The procedure, abridged: as §1

The target of another test is T11, TRKA (Homo sapiens, UniProt P04629).
T11 construct: purchased Nanosyn (enzymatic panel); SGC in-house recombinant human kinases (DSF panel); Invitrogen (ALK1-6)
T11 sequence (P04629 33-796): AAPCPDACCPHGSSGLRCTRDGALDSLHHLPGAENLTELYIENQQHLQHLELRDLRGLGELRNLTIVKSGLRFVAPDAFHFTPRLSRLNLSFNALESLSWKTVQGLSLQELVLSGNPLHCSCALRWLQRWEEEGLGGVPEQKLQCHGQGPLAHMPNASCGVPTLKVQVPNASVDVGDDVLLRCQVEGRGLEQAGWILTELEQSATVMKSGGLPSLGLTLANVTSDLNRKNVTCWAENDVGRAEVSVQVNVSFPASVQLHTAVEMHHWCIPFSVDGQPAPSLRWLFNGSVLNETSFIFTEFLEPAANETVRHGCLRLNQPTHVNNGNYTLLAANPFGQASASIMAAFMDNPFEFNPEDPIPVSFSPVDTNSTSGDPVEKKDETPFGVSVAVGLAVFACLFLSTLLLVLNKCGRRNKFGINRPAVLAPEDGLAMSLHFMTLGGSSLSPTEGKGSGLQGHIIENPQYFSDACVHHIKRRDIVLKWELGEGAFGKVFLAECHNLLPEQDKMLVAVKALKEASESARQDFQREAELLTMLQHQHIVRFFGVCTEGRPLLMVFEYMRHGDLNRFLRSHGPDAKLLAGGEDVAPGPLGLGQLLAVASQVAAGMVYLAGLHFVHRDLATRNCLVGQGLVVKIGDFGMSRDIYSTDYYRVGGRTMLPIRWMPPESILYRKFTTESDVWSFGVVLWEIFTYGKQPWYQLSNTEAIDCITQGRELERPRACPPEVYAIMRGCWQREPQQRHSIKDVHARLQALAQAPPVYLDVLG
Put shortly: as §1

Another test deals with T12, p38δ (Homo sapiens, UniProt O15264).
T12 construct: purchased Nanosyn (enzymatic panel); SGC in-house recombinant human kinases (DSF panel); Invitrogen (ALK1-6)
T12 sequence (O15264 1-365): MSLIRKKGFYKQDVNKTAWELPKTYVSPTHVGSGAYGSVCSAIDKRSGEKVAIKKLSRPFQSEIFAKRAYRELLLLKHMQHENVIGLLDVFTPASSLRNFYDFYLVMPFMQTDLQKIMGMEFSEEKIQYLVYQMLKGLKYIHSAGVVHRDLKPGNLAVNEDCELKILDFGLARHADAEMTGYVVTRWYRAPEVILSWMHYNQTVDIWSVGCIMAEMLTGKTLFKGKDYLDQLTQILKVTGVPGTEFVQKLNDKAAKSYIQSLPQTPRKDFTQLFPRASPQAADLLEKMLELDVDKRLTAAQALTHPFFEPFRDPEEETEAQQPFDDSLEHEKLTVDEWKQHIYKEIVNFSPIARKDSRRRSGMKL
Put shortly: as §1

T7 sequence (P22607 23-806): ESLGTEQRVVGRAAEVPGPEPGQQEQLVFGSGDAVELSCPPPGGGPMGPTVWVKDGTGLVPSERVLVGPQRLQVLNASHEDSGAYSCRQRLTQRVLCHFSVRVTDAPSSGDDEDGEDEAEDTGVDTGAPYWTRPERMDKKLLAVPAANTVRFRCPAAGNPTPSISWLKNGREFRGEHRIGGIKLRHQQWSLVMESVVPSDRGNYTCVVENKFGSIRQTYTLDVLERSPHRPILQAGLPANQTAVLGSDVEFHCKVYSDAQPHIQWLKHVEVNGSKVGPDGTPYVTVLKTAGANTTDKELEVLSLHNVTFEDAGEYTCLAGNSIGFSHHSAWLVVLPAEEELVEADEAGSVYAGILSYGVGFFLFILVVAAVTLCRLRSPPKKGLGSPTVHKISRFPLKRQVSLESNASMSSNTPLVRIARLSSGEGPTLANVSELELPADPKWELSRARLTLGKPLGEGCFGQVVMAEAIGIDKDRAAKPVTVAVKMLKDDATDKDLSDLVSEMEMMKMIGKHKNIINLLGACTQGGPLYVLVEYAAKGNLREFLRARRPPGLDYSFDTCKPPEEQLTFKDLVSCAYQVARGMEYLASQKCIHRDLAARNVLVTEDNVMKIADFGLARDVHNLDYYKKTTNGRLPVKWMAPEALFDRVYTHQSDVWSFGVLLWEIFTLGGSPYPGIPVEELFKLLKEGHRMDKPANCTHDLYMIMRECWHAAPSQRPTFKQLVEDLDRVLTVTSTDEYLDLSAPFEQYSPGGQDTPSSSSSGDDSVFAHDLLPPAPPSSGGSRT
T1 sequence (Q96GD4 whole entry): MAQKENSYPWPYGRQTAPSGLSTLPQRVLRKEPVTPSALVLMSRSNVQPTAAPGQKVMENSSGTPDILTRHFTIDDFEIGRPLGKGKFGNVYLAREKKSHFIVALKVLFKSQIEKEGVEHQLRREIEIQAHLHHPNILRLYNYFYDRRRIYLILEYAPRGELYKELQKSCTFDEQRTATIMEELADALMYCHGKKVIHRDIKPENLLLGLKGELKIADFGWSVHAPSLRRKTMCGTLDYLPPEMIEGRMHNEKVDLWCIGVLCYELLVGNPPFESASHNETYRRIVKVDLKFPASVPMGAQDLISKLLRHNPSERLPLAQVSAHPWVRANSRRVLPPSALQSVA
T9 sequence (P07949 29-1114): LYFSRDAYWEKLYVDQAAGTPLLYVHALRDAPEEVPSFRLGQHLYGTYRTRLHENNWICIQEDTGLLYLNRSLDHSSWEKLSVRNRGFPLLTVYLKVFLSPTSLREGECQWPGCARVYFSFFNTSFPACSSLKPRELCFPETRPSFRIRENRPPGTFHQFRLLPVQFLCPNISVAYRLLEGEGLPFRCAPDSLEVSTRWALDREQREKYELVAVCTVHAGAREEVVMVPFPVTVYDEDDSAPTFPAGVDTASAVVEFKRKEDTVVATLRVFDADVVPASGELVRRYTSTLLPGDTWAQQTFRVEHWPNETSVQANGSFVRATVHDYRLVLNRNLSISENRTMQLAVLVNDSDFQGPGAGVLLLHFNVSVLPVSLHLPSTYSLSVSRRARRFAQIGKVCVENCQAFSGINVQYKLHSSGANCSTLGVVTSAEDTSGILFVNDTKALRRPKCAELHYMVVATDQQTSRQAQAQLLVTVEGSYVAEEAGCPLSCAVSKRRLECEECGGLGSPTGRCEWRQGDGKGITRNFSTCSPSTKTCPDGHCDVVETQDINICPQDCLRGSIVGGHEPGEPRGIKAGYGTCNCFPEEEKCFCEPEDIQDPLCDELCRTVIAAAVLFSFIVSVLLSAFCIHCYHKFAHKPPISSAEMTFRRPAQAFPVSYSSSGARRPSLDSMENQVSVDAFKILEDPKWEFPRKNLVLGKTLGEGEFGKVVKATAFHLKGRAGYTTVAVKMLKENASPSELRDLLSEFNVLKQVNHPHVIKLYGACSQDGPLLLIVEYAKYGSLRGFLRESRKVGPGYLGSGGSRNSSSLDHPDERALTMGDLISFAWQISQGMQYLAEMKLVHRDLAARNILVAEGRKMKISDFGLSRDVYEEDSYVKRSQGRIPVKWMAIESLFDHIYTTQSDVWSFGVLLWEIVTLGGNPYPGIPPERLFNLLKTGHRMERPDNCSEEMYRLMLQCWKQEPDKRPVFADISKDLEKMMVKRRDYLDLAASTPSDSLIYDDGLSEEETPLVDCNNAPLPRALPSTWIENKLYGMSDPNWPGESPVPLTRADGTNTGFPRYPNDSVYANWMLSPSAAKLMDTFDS

Broadly, the inhibition is the change of the read-out against control, counted positive when it falls. For the molecule `COc1cc(-c2cc(-c3cccc(O)c3)cnc2N)cc(OC)c1OC` [K02288, 3-[6-amino-5-(3,4,5-trimethoxy-phenyl)-pyridin-3-yl]-phenol], the inhibition at 0.1 µM was 0.3% on AURKB; 3.2% on BLK; 13% on BRK; 0% on CLK2; -2% on DCAMKL2; -5% at ERBB4. The inhibition at 0.1 µM at FGFR3 was -2%; on PKA, 0.3%; on RET it was 2.1%; at TBK1 it was 1.5%; on TRKA, 1.5%; at p38δ, -3%. The inhibition at 1 µM at AURKB was determined as 1.5%; at BLK, 27%; at BRK it was 66%; at CLK2 it was 0%; on DCAMKL2 it was 2.3%; on ERBB4 it was 0.9%. The inhibition at 1 µM is 0.2% at FGFR3; 6.1% on PKA; 3.9% on RET; 3.7% on TBK1; 2.8% at TRKA; -3% at p38δ.
Consider `c1ccc2c(-c3cnn4cc(-c5ccc(N6CCNCC6)cc5)cnc34)ccnc2c1` [LDN-193189], for which the inhibition at 0.1 µM on AURKB turned out to be 2.3%; at BLK, 3.9%; at BRK, 13%; on CLK2, 2.3%; on DCAMKL2, 0.8%; at ERBB4, 6.1%. The inhibition at 0.1 µM at FGFR3 was 5%; at PKA, 1.4%; at RET, 4%; at TBK1, 4.5%; at TRKA it was 1.9%; at p38δ, 1.8%. Besides, the inhibition at 1 µM on AURKB was 15%; on BLK it was 24%; at BRK, 57%; on CLK2, 35%; at DCAMKL2, 3.4%; on ERBB4, 11%. Also, the inhibition at 1 µM at FGFR3 stood at 16%; on PKA, 2.1%; at RET it was 16%; at TBK1, 16%; at TRKA it was 7.2%; at p38δ, 0.5%.
